The values below come from patent US12433843B2, “Biomolecular composites comprising modified cell ghosts” (National University of Singapore, priority 2017, dated 2025).

The data set deals with CT26 mouse colon carcinoma model. The data set is described as follows: In vivo co-localisation of Cy7 labelled nCVTs, IVIS imaging. The method, then: The nCVTs labelled with cyanine 7 NHS Monoester dye (Cy7) of Example 7 were compared with similarly labeled liposomes of the same lipid constitution (Liposomes produced for loading and in vitro testing were prepared with 1.95 mg of DPPC and 0.05 mg of Cholesterol. Liposomes produced for in vivo experiments were PEGylated, and prepared with 2.61 mg of DPPC, 1.61 mg of DSPE-PEG2000 and 0.78 mg of cholesterol.) The samples were then injected through the tail vein of a CT26 mouse colon carcinoma model, with tumour formation subcutaneously on the back of the mouse.
Three groups of mice were injected with Cy7 labelled nCVTs, Cy7 labelled liposomes and free dye. After 24 hours, the mice were imaged using the In Vivo Imaging Systems (IVIS) spectrum.

Consider cyanine 7 NHS Monoester dye [free dye], for which, for the setting “24 hours, liposomes are PEGylated”, the “Relative fluorescence intensity of excised liver and kidney” value was “reduced fluorescence intensity”. Further, the “Accumulation of fluorescence at the tumour site (IVIS, whole mice)” value (tail vein injection, after 24 hours, liposomes are PEGylated) is given as “does not accumulate in the tumours”. In addition, the Clearance result (tail vein injection, mouse) is “rapidly cleared”. Under “within 24 hours”, the “Elimination from the mouse” value is listed as “largely eliminated”.
